Assay results taken from patent US12595253B2, “Benzamides of pyrazolylamino-pyrimidinyl derivatives, and compositions and methods thereof” (LYNK PHARMACEUTICALS CO. LTD., priority 2019, dated 2026).

Experiments:
Format in all cases: biochemical
JAK2V617F = biological target: T1, JAK2V617F (Homo sapiens, UniProt O60674, V617F); test: JAK2V617F microfluidic kinase assay (Caliper EZ Reader II, FAM labeled peptide substrate); conditions: JAK2V617F 2.5 nM, 1 mM ATP
T1 construct: purchased Carna Biosciences
Method: (§1) Compounds were tested against JAK1, JAK2, JAK2V617F and TYK2. Assay Formats: JAK activity was determined in the reaction buffer 50 mM HEPES, 0.01% Brij35, 10 mM MgCl2, 2 mM DTT by a microfluidic assay. The phosphorylation of a FAM labeled peptide substrate was monitored in the Caliper EZ Reader II (Perkin Elmer). The assay condition for each batch of enzyme (Carna Biosciences) was optimized to obtain 10% conversion rate of peptide substrate. The test compounds were dissolved in DMSO to a stock concentration of 10 mM. 3-fold serially diluted compounds with top concentration of 5 μM were pre-incubated with JAK1, JAK2, JAK2V617F or TYK2 at indicated concentrations for 10 min at ambient temperature. The final DMSO concentration of assay mixture was 1%. […] The reaction was stopped by adding 50 mM EDTA. […] The percent inhibition was calculated by the following formula. % Inhibition=(Conversionmax−Conversionsample)/(Conversionmax−Conversionmin)*100 • Conversionmax means the conversion rate in the positive well without addition of compound • Conversionmin means the conversion rate in the well without addition of enzyme • Conversionsample means the conversion rate of test compounds The dose-response (percent inhibition) curve was plotted and IC50 values were determined by GraphPad software.

JAK1 = biological target: T2, JAK1 (Homo sapiens, UniProt P23458); test: JAK1 microfluidic kinase assay (Caliper EZ Reader II, FAM labeled peptide substrate)
T2 construct: purchased Carna Biosciences
Summary of the method: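 Compounds, serially diluted 3-fold from 5 μM, were preincubated 10 min with enzyme at ambient temperature before reaction in HEPES/Brij35/MgCl2/DTT buffer (1% DMSO final), tuned to 10% peptide conversion. After EDTA stop, FAM-peptide phosphorylation was measured by Caliper EZ Reader II; IC50 fitted from percent-inhibition curves.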

JAK2 = biological target: T3, JAK2 (Homo sapiens, UniProt O60674); test: JAK2 microfluidic kinase assay (Caliper EZ Reader II, FAM labeled peptide substrate)
T3 construct: purchased Carna Biosciences
Method: as §1

[1] = IC50 JAK1 (5 nM) (1 m MATP), JAK1 5 nM, 1 mM ATP
[2] = IC50 JAK2 ([…]) (1 mM ATP), 1 mM ATP
[3] = IC50 JAK2 ([…]) (Km ATP), Km ATP

T3 sequence (O60674 whole entry): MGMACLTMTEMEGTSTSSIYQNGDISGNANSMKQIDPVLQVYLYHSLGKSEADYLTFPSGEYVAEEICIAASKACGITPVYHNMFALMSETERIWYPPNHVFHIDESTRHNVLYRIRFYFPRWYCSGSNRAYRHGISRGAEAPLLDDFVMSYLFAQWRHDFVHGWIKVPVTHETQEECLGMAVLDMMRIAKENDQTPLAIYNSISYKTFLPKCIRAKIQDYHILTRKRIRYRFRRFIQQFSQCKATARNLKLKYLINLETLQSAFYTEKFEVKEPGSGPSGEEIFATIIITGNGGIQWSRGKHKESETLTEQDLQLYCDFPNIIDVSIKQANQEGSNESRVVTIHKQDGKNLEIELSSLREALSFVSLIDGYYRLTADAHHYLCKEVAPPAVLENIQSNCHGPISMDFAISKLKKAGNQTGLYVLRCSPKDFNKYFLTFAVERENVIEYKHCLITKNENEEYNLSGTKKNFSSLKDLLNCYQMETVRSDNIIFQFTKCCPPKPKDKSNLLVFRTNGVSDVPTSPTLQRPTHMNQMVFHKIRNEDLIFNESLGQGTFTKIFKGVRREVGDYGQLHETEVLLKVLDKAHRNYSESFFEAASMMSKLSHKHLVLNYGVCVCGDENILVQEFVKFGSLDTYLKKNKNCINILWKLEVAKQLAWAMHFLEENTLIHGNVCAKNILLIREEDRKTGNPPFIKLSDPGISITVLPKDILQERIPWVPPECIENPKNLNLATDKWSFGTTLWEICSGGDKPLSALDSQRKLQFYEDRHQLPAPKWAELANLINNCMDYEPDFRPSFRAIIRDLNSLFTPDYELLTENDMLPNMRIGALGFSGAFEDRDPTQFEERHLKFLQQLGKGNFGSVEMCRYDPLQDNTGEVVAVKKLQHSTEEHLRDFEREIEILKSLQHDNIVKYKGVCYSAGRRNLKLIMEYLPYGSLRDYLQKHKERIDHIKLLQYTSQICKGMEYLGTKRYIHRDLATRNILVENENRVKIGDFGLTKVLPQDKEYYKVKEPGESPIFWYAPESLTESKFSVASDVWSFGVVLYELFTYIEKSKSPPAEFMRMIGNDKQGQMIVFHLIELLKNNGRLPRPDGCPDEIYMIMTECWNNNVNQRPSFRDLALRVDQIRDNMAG
T2 sequence (P23458 whole entry): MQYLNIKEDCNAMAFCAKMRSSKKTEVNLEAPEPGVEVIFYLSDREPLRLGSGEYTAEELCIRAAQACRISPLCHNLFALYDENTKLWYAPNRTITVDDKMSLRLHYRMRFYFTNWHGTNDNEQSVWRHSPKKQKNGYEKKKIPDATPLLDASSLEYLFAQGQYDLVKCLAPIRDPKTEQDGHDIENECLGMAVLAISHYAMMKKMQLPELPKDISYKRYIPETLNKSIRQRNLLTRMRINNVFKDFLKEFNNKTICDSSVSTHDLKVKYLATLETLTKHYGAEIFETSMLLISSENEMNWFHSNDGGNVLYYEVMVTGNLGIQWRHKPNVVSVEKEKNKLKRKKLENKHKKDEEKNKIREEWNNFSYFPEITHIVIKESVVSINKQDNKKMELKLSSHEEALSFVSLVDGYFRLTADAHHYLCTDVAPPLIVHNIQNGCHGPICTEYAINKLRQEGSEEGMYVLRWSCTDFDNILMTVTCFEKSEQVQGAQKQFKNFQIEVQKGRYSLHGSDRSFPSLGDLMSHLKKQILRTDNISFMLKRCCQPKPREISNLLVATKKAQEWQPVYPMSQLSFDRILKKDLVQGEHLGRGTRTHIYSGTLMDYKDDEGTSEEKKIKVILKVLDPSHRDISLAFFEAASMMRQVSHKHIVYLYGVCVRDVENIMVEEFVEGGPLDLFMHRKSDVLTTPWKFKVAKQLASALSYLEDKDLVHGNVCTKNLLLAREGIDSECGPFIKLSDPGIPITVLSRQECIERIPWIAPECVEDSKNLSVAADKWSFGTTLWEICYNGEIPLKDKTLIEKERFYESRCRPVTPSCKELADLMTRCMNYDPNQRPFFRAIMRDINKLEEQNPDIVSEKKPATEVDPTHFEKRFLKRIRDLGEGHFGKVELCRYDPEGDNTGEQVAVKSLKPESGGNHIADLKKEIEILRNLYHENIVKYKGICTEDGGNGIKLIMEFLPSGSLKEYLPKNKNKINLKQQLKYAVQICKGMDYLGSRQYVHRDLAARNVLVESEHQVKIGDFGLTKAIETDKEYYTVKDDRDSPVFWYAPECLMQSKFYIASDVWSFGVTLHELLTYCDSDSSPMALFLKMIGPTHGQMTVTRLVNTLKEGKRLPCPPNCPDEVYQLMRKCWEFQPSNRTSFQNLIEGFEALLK
T1 sequence (O60674 whole entry V617F): as the sequence (O60674 whole entry) above, with V617F counted along it

IC50 (JAK2V617F) | IC50 (JAK1; [1]) | IC50 (JAK2; [2]) | IC50 (JAK2; [3]) | IC50 (JAK1; IC50 JAK1 (10 nM) (Km ATP), JAK1 10 nM, Km ATP) | Compound
102 nM | 20.1 nM | 44.3 nM | 1.39 nM | – | Cc1cnc(Nc2cnn(C3CC3)c2)nc1-c1ccc(C(=O)NCC2(C#N)CC2)cc1 [Example 93, N-((1-cyanocyclopropyl)methyl)-4-(2-((1-cyclopropyl-1H-pyrazol-4-yl)amino)-5-methylpyrimidin-4-yl)benzamide]
14.1 nM | 3.68 nM | 1.68 nM | – | – | CCn1cc(Nc2ncc(Cl)c(-c3ccc(C(=O)N[C@@H](C)C#N)cc3)n2)cn1 [Example 229, (S)-4-(5-Chloro-2-((1-ethyl-1H-pyrazol-4-yl)amino)pyrimidin-4-yl)-N-(1-cyanoethyl)benzamide]
22 nM | 5.89 nM | 0.39 nM | – | – | CC(C)n1cc(Nc2ncc(Cl)c(-c3ccc(C(=O)N[C@@H](C)C#N)cc3)n2)cn1 [Example 228, (S)-4-(5-Chloro-2-((1-isopropyl-1H-pyrazol-4-yl)amino)pyrimidin-4-yl)-N-(1-cyanoethyl)benzamide]
92.3 nM | 37 nM | 46.4 nM | 2.1 nM | – | C[C@@H](C#N)NC(=O)c1ccc(-c2nc(Nc3cnn(C4CC4)c3)ncc2Cl)cc1F [Example 137, (S)-4-(5-Chloro-2-((1-cyclopropyl-1H-pyrazol-4-yl)amino)pyrimidin-4-yl)-N-(1-cyanoethyl)-2-fluorobenzamide]
6.97 nM | 15.1 nM | 0.47 nM | – | – | Cc1cnc(Nc2cnn(C3CCN(C(=O)C4CC4(F)F)CC3)c2)nc1-c1ccc(C(=O)NCC#N)cc1 (stereo not shown) [Example 145, N-(cyanomethyl)-4-(2-((1-(1-(2,2-difluorocyclopropanecarbonyl)piperidin-4-yl)-1H-pyrazol-4-yl)amino)-5-methylpyrimidin-4-yl)benzamide]
73.9 nM | 19.3 nM | – | 1.1 nM | – | Cn1cc(Nc2ncc(Cl)c(-c3ccc(C(=O)NCC(C)(C)C#N)cc3)n2)cn1 [Example 122, 4-(5-Chloro-2-((1-methyl-1H-pyrazol-4-yl)amino)pyrimidin-4-yl)-N-(2-cyano-2-methylpropyl)benzamide]
2.06 nM | 20.8 nM | < 0.25 nM | < 0.25 nM | – | Cc1cnc(Nc2cnn(C3CCN(C(=O)C4(C(F)(F)F)CC4)CC3)c2)nc1-c1ccc(C(=O)NCC#N)cc1 [Example 115, N-(Cyanomethyl)-4-(5-methyl-2-((1-(1-(1-(trifluoromethyl)cyclopropanecarbonyl)piperidin-4-yl)-1H-pyrazol-4-yl)amino)pyrimidin-4-yl)benzamide]
36.7 nM | 24.1 nM | 4.82 nM | – | – | Cc1cnc(Nc2cnn(C3CCN(S(C)(=O)=O)CC3)c2)nc1-c1ccc(C(=O)NCC2(C#N)CC2)cc1 [Example 159, N-((1-cyanocyclopropyl)methyl)-4-(5-methyl-2-((1-(1-(methylsulfonyl)piperidin-4-yl)-1H-pyrazol-4-yl)amino)pyrimidin-4-yl)benzamide]
118 nM | 39.9 nM | 49 nM | 1.6 nM | – | Cc1cnc(Nc2cnn(C3CC3)c2)nc1-c1ccc(C(=O)N[C@@H](C)C#N)c(F)c1 [Example 129, (S)—N-(1-Cyanoethyl)-4-(2-((1-cyclopropyl-1H-pyrazol-4-yl)amino)-5-methylpyrimidin-4-yl)-2-fluorobenzamide]
71.6 nM | 34.8 nM | 41.3 nM | – | – | C[C@H](C#N)NC(=O)c1ccc(-c2nc(Nc3cnn(C4CC4)c3)ncc2Cl)cc1 [Example 196, (R)-4-(5-chloro-2-((1-cyclopropyl-1H-pyrazol-4-yl)amino)pyrimidin-4-yl)-N-(1-cyanoethyl)benzamide]
142 nM | 36.6 nM | 89.3 nM | – | – | Cc1cnc(Nc2cnn(C3CC3)c2)nc1-c1ccc(C(=O)N[C@@H](C)C#N)nc1 [Example 164, (S)—N-(1-cyanoethyl)-5-(2-((1-cyclopropyl-1H-pyrazol-4-yl)amino)-5-methylpyrimidin-4-yl)picolinamide]
17.6 nM | 4.08 nM | 3.14 nM | – | – | CCCn1cc(Nc2ncc(Cl)c(-c3ccc(C(=O)N[C@@H](C)C#N)cc3)n2)cn1 [Example 227, (S)-4-(5-Chloro-2-((1-propyl-1H-pyrazol-4-yl)amino)pyrimidin-4-yl)-N-(1-cyanoethyl)benzamide]

Continued, compound first:

Compound | IC50 (JAK2V617F) | IC50 (JAK1; [1]) | IC50 (JAK2; [2]) | IC50 (JAK2; [3]) | IC50 (JAK1; IC50 JAK1 (10 nM) (Km ATP), JAK1 10 nM, Km ATP)
Cc1cnc(Nc2cnn(C)c2)nc1-c1ccc(C(=O)N[C@H]2C[C@@H](C#N)C2)cc1 [Example 16, N-((cis)-3-Cyanocyclobutyl)-4-(5-methyl-2-((1-methyl-1H-pyrazol-4-yl)amino)pyrimidin-4-yl)benzamide] | 796 nM | 124 nM | – | 13.6 nM | –
Cc1cnc(Nc2cnn(C3CCN(C(=O)NC(C)(C)C)CC3)c2)nc1-c1ccc(C(=O)NCC#N)cc1 [Example 3, N-(tert-Butyl)-4-(4-((4-(4-((cyanomethyl)carbamoyl)phenyl)-5-methylpyrimidin-2-yl)amino)-1H-pyrazol-1-yl)piperidine-1-carboxamide] | 5.26 nM | 17.1 nM | < 0.25 nM | < 0.25 nM | –
Cc1cnc(Nc2cnn([C@H]3CC[C@@H](C#N)CC3)c2)nc1-c1ccc(C(=O)NCC(F)(F)F)cc1 [Example 86, 4-(2-((1-(Cis-4-cyanocyclohexyl)-1H-pyrazol-4-yl)amino)-5-methylpyrimidin-4-yl)-N-(2,2,2-trifluoroethyl)benzamide] | 4.91 nM | 14.3 nM | 1.21 nM | – | –
Cc1cnc(Nc2cnn(C3CCOCC3)c2)nc1-c1ccc(C(=O)N2CC(C#N)C2)cc1 [Example 31, 1-(4-(5-Methyl-2-((1-(tetrahydro-2H-pyran-4-yl)-1H-pyrazol-4-yl)amino)pyrimidin-4-yl)benzoyl)azetidine-3-carbonitrile] | 131 nM | 235 nM | 71.7 nM | 2.07 nM | –
Cc1cnc(Nc2cnn(C3CCCCC3)c2)nc1-c1ccc(C(=O)N[C@@H](C)C#N)cc1 [Example 89, (S)—N-(1-cyanoethyl)-4-(2-((1-cyclohexyl-1H-pyrazol-4-yl)amino)-5-methylpyrimidin-4-yl)benzamide] | 10.1 nM | 4.78 nM | < 0.25 nM | – | –
Cc1cnc(Nc2cnn(C3CCN(CC(F)(F)F)CC3)c2)nc1-c1ccc(C(=O)NCC#N)cc1 [Example 22, N-(Cyanomethyl)-4-(5-methyl-2-((1-(1-(2,2,2-trifluoroethyl)piperidin-4-yl)-1H-pyrazol-4-yl)amino)pyrimidin-4-yl)benzamide] | 46.1 nM | – | 1.59 nM | 0.43 nM | 2.37 nM
CO[C@H]1CC[C@@H](n2cc(Nc3ncc(C)c(-c4ccc(C(=O)N[C@@H](C)C#N)cc4)n3)cn2)CC1 [Example 90, N—((S)-1-cyanoethyl)-4-(2-((1-(cis-4-methoxycyclohexyl)-1H-pyrazol-4-yl)amino)-5-methylpyrimidin-4-yl)benzamide] | 34.3 nM | 13.1 nM | 0.47 nM | – | –
Cc1cnc(Nc2cnn(CC#N)c2)nc1-c1ccc(C(=O)N[C@@H](C)C#N)cc1 [Example 40, (S)—N-(1-cyanoethyl)-4-(2-((1-(cyanomethyl)-1H-pyrazol-4-yl)amino)-5-methylpyrimidin-4-yl)benzamide] | 92.3 nM | 19.1 nM | 15 nM | – | –
Cc1cnc(Nc2cnn([C@H]3CC[C@H](C#N)CC3)c2)nc1-c1ccc(C(=O)NCC(F)(F)F)cc1 [Example 87, 4-(2-((1-(Trans-4-cyanocyclohexyl)-1H-pyrazol-4-yl)amino)-5-methylpyrimidin4-yl)-N-(2,2,2-trifluoroethyl)benzamide] | 0.65 nM | 9 nM | < 0.25 nM | – | –
